Data on 24 molecules can be found in PubChem BioAssay (NCI).

SMILES strings stand for the structures.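 Five compound concentrations were applied to cells in 96-well plates for 48 hours; endpoints were derived by simple linear interpolation of the resulting dose-response curve. TGI denotes the concentration required for complete inhibition of growth.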

In the first test the test system is HCT-15 colon. Briefly: inhibition of tumour cell growth, NCI panel, 48 h.
With `O=C1CC2C=CC(O)C(C1)C2` (stereo unspecified), the TGI is above 100 µM.
Still for that read-out and setting: as for `COC(=O)C1(Cc2ccccc2)Cc2cc3c(cc2C1=O)CCC3` (stereo unspecified), the figure is above 100 µM; as for `N#CC1=C(N)OC2=C(CSc3ccccc32)C1c1ccc(Br)cc1` (stereo unspecified), 24.5 µM; as for `Cc1sc2nc3n(c(=O)c2c1C)N=CN(c1ccccc1)C3`, above 100 µM.
Molecule `COc1ccc(N2C(=O)C3c4[nH]c5ccc([N+](=O)[O-])cc5c4C4CCC(C(C)(C)C)CC4C3C2=O)cc1` (stereo unspecified) came in with a TGI above 100 µM.
On to `COC(=O)C1=C(C(=O)OC)C2OC1C1C2C2(C)C(C)=C(C)C1(C)S2=O` (stereo unspecified), for which the TGI came to 20.5 µM.
On to `CC(C)(C)OC(=O)NC(C)(C)C(=O)NCCC(=O)O`, for which the TGI was above 100 µM.
The molecule `CCOC(=O)CCC(NC(=O)c1ccc(OCc2nc3cc(C(F)(F)F)ccc3nc2-c2ccccc2)cc1)C(=O)OCC` (stereo unspecified) yielded a TGI above 100 µM.
In turn, `O=C(O)c1ccc(NC(c2ccccc2)c2ccc3cccnc3c2O)cc1` (stereo unspecified) yielded a TGI above 100 µM.
Molecule `CCOC(=O)c1sc2nc(SC)nc3c2c1N=CN3c1ccc(Br)cc1` displayed a TGI above 100 µM.
In the case of `CC[C@@H]1CC[C@@H]2[C@H](CC[C@]3(C)[C@@H](O)CC[C@@H]23)[C@H]1C(=O)O`, the TGI is above 100 µM.
`CCOC(=O)c1c(NC(=O)c2ccccc2)sc2c1CCCC2` gave a TGI above 100 µM.
`Nc1nc(Cl)cc(NCC2(CO)CC(CCc3ccccc3)C2)n1` (stereo unspecified) came in with a TGI above 100 µM.
As to `O=c1c2ccccc2[nH]c(=S)n1-c1ccc(N=Nc2cccc3c(O)cccc23)cc1`, the TGI was above 100 µM.
Still for that read-out and setting: to `N#C/C(=C\NC(=S)Nc1ccc(S(=O)(=O)Nc2ccccn2)cc1)C(N)=O` belongs above 100 µM; to `CC(=O)NC1C(OCc2ccccc2)OC(CO)C(O)C1OCC(=O)N[C@@H](C)C(=O)N[C@H](CCC(=O)NCCNCCNc1c2ccccc2nc2cccc([N+](=O)[O-])c12)C(N)=O` (stereo partly specified), above 100 µM.
On to `c1cc2nnc1SCCSCCSc1ccc(nn1)SCCSCCS2`, for which the TGI was above 100 µM.
Consider `O=C(Cc1nc2ccc(C(=O)c3ccccc3)cc2[nH]c1=O)C(=O)Nc1ccc(Br)cc1`, for which the TGI was above 100 µM.
For `c1sc(NC2=NCCO2)c2c1CCCC2`, the TGI was above 100 µM.
`CC(=O)C(CN1CCCCC1)C(c1ccccc1)c1c(O)c2ccccc2oc1=O` (stereo unspecified) returned a TGI above 100 µM.
Same read-out and setting: to `O=c1oc2ccccc2c(O)c1C(c1cc(OCc2ccccc2)cc(OCc2ccccc2)c1)c1c(O)c2ccccc2oc1=O` belongs 11.8 µM; to `Cc1cc(-c2nc3ccccc3s2)ccc1NS(=O)(=O)O`, above 100 µM.
`Cc1cc2c(c(C(=O)NCCC(=O)O)c1)Oc1c(cc(C)cc1C(=O)NCCC(=O)O)S2` registered a TGI above 100 µM.
For `c1cc(-c2cnc(-c3ccc4c(c3)CCCO4)o2)ccn1`, the TGI worked out at 31.6 µM.

The test system of a further test is IGROV1 ovarian. Briefly: inhibition of tumour cell growth, NCI panel, 48 h.
`O=C1CC2C=CC(O)C(C1)C2` (stereo unspecified): the TGI is above 100 µM.
`COC(=O)C1(Cc2ccccc2)Cc2cc3c(cc2C1=O)CCC3` (stereo unspecified) showed a TGI above 100 µM.
`N#CC1=C(N)OC2=C(CSc3ccccc32)C1c1ccc(Br)cc1` (stereo unspecified) returned a TGI of 25.8 µM.
On to `Cc1sc2nc3n(c(=O)c2c1C)N=CN(c1ccccc1)C3`, for which the TGI was above 100 µM.
As to `COc1ccc(N2C(=O)C3c4[nH]c5ccc([N+](=O)[O-])cc5c4C4CCC(C(C)(C)C)CC4C3C2=O)cc1` (stereo unspecified), the TGI was above 100 µM.
Same read-out and setting: as for `COC(=O)C1=C(C(=O)OC)C2OC1C1C2C2(C)C(C)=C(C)C1(C)S2=O` (stereo unspecified), the figure is 39.3 µM; as for `CC(C)(C)OC(=O)NC(C)(C)C(=O)NCCC(=O)O`, above 100 µM; as for `CCOC(=O)CCC(NC(=O)c1ccc(OCc2nc3cc(C(F)(F)F)ccc3nc2-c2ccccc2)cc1)C(=O)OCC` (stereo unspecified), above 100 µM.
On to `O=C(O)c1ccc(NC(c2ccccc2)c2ccc3cccnc3c2O)cc1` (stereo unspecified), for which the TGI was above 95.8 µM.
In turn, `CCOC(=O)c1sc2nc(SC)nc3c2c1N=CN3c1ccc(Br)cc1` gave a TGI above 100 µM.
With `CC[C@@H]1CC[C@@H]2[C@H](CC[C@]3(C)[C@@H](O)CC[C@@H]23)[C@H]1C(=O)O`, the TGI is above 100 µM.
For the molecule `CCOC(=O)c1c(NC(=O)c2ccccc2)sc2c1CCCC2`, the TGI is above 100 µM.
In turn, `Nc1nc(Cl)cc(NCC2(CO)CC(CCc3ccccc3)C2)n1` (stereo unspecified) gave a TGI above 100 µM.
The same measure, in the same setting: to `O=c1c2ccccc2[nH]c(=S)n1-c1ccc(N=Nc2cccc3c(O)cccc23)cc1` belongs above 100 µM.
The molecule `N#C/C(=C\NC(=S)Nc1ccc(S(=O)(=O)Nc2ccccn2)cc1)C(N)=O` registered a TGI above 100 µM.
The molecule `CC(=O)NC1C(OCc2ccccc2)OC(CO)C(O)C1OCC(=O)N[C@@H](C)C(=O)N[C@H](CCC(=O)NCCNCCNc1c2ccccc2nc2cccc([N+](=O)[O-])c12)C(N)=O` (stereo partly specified) displayed a TGI of 32.7 µM.
`c1cc2nnc1SCCSCCSc1ccc(nn1)SCCSCCS2` yielded a TGI above 100 µM.
The molecule `O=C(Cc1nc2ccc(C(=O)c3ccccc3)cc2[nH]c1=O)C(=O)Nc1ccc(Br)cc1` came in with a TGI above 100 µM.
The same measure, in the same setting: as for `c1sc(NC2=NCCO2)c2c1CCCC2`, the figure is above 100 µM.
`CC(=O)C(CN1CCCCC1)C(c1ccccc1)c1c(O)c2ccccc2oc1=O` (stereo unspecified): the TGI is above 100 µM.
Still for that read-out and setting: to `O=c1oc2ccccc2c(O)c1C(c1cc(OCc2ccccc2)cc(OCc2ccccc2)c1)c1c(O)c2ccccc2oc1=O` belongs 51.2 µM; to `Cc1cc(-c2nc3ccccc3s2)ccc1NS(=O)(=O)O`, above 100 µM; to `Cc1cc2c(c(C(=O)NCCC(=O)O)c1)Oc1c(cc(C)cc1C(=O)NCCC(=O)O)S2`, above 100 µM.
Molecule `c1cc(-c2cnc(-c3ccc4c(c3)CCCO4)o2)ccn1` returned a TGI of 36.5 µM.

In another test the test system is K-562 leukemia. Briefly: inhibition of tumour cell growth, NCI panel, 48 h.
For `O=C1CC2C=CC(O)C(C1)C2` (stereo unspecified), the TGI is above 100 µM.
On the same count and under the same terms, as for `COC(=O)C1(Cc2ccccc2)Cc2cc3c(cc2C1=O)CCC3` (stereo unspecified), the figure is 81.8 µM.
In turn, `N#CC1=C(N)OC2=C(CSc3ccccc32)C1c1ccc(Br)cc1` (stereo unspecified) yielded a TGI of 11.3 µM.
`Cc1sc2nc3n(c(=O)c2c1C)N=CN(c1ccccc1)C3`: the TGI is above 100 µM.
`COc1ccc(N2C(=O)C3c4[nH]c5ccc([N+](=O)[O-])cc5c4C4CCC(C(C)(C)C)CC4C3C2=O)cc1` (stereo unspecified): the TGI was determined as 7.33 µM.
Consider `COC(=O)C1=C(C(=O)OC)C2OC1C1C2C2(C)C(C)=C(C)C1(C)S2=O` (stereo unspecified), for which the TGI was above 100 µM.
As to `CC(C)(C)OC(=O)NC(C)(C)C(=O)NCCC(=O)O`, the TGI is above 100 µM.
`CCOC(=O)CCC(NC(=O)c1ccc(OCc2nc3cc(C(F)(F)F)ccc3nc2-c2ccccc2)cc1)C(=O)OCC` (stereo unspecified) returned a TGI above 100 µM.
The same measure, in the same setting: to `O=C(O)c1ccc(NC(c2ccccc2)c2ccc3cccnc3c2O)cc1` (stereo unspecified) belongs above 49.8 µM; to `CCOC(=O)c1sc2nc(SC)nc3c2c1N=CN3c1ccc(Br)cc1`, above 100 µM.
`CC[C@@H]1CC[C@@H]2[C@H](CC[C@]3(C)[C@@H](O)CC[C@@H]23)[C@H]1C(=O)O` had a TGI above 100 µM.
Take `CCOC(=O)c1c(NC(=O)c2ccccc2)sc2c1CCCC2`: the TGI is above 100 µM.
Turning to `Nc1nc(Cl)cc(NCC2(CO)CC(CCc3ccccc3)C2)n1` (stereo unspecified), the TGI is above 100 µM.
Still for that read-out and setting: as for `O=c1c2ccccc2[nH]c(=S)n1-c1ccc(N=Nc2cccc3c(O)cccc23)cc1`, the figure is above 100 µM; as for `N#C/C(=C\NC(=S)Nc1ccc(S(=O)(=O)Nc2ccccn2)cc1)C(N)=O`, above 100 µM; as for `CC(=O)NC1C(OCc2ccccc2)OC(CO)C(O)C1OCC(=O)N[C@@H](C)C(=O)N[C@H](CCC(=O)NCCNCCNc1c2ccccc2nc2cccc([N+](=O)[O-])c12)C(N)=O` (stereo partly specified), above 100 µM.
In the case of `c1cc2nnc1SCCSCCSc1ccc(nn1)SCCSCCS2`, the TGI is above 100 µM.
As for `O=C(Cc1nc2ccc(C(=O)c3ccccc3)cc2[nH]c1=O)C(=O)Nc1ccc(Br)cc1`, the TGI was above 100 µM.
